From ChEMBL document CHEMBL3102856, “The marine cyanobacterial metabolite gallinamide A is a potent and selective inhibitor of human cathepsin L” (J Nat Prod, 2014)
Activity calls are given as the source filed them. No cut-off for these calls is given here.

Assays:
Cathepsin B [1] = molecular target: T1, Cathepsin B (Homo sapiens, UniProt P07858); experiment: Inhibition of human Cathepsin B using Z-Phe-Arg-aminomethylcoumarin as substrate
Procathepsin L [2] = molecular target: T2, Procathepsin L (Homo sapiens, UniProt P07711); experiment: Inhibition of recombinant human Cathepsin L using Z-Phe-Arg-aminomethylcoumarin as substrate
Pro-cathepsin H [3] = molecular target: T3, Pro-cathepsin H (Homo sapiens, UniProt P09668); experiment: Inhibition of human Cathepsin H using Arg-aminomethylcoumarin as substrate
T3 sequence (P09668 whole entry): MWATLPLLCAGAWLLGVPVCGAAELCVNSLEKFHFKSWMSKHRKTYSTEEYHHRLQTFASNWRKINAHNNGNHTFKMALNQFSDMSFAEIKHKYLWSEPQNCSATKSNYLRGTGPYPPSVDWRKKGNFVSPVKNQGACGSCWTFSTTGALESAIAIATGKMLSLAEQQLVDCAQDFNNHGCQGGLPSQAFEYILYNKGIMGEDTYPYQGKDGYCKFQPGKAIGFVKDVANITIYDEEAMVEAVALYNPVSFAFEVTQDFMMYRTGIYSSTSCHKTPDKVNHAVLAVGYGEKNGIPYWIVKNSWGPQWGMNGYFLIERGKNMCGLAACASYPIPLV

Homo sapiens [4] = organism: Homo sapiens; experiment: Selectivity index, ratio of IC50 for human Cathepsin V to IC50 for recombinant human Cathepsin L using Z-Phe-Arg-aminomethylcoumarin as substrate preincubated for 30 mins followed by substrate addition
Cathepsin L2 [5] = molecular target: T4, Cathepsin L2 (Homo sapiens, UniProt O60911); experiment: Inhibition of human Cathepsin V using Z-Phe-Arg-aminomethylcoumarin as substrate
T4 sequence (O60911 whole entry): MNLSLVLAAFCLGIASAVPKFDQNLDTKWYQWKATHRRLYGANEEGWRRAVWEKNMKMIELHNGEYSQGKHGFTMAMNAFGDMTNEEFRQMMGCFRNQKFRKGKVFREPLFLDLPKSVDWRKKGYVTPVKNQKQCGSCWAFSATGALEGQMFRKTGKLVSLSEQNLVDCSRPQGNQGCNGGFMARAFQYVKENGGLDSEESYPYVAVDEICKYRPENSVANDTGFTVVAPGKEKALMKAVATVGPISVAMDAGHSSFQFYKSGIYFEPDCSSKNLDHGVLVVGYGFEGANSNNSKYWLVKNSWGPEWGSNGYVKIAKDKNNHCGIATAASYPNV

Homo sapiens [6] = organism: Homo sapiens; experiment: Selectivity index, ratio of IC50 for human Cathepsin B to IC50 for recombinant human Cathepsin L using Z-Phe-Arg-aminomethylcoumarin as substrate
Procathepsin L [7] = molecular target: T2, Procathepsin L; experiment: Irreversible inhibition of recombinant human Cathepsin L using Z-Phe-Arg-aminomethylcoumarin as substrate assessed as residual activity at 10 fold IC50 preincubated for 30 mins followed by 100 fold dilution measured for 2 hrs by fluorescence assay
Target sequence in this assay (P07711 114-333 limits assumed): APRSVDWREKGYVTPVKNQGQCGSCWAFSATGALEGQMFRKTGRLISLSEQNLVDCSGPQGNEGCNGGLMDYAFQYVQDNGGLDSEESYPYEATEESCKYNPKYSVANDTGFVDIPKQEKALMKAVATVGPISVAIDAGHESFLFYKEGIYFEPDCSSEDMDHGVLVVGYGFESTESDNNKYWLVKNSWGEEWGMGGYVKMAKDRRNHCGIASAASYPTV

Cathepsin L2 [8] = molecular target: T4, Cathepsin L2; experiment: Inhibition of human Cathepsin V using Z-Phe-Arg-aminomethylcoumarin as substrate preincubated for 30 mins followed by substrate addition
Homo sapiens [9] = organism: Homo sapiens; experiment: Selectivity index, ratio of IC50 for human Cathepsin V to IC50 for recombinant human Cathepsin L using Z-Phe-Arg-aminomethylcoumarin as substrate
Cathepsin B [10] = molecular target: T1, Cathepsin B; experiment: Inhibition of human Cathepsin B using Z-Phe-Arg-aminomethylcoumarin as substrate preincubated for 30 mins followed by substrate addition
Procathepsin L [11] = molecular target: T2, Procathepsin L; experiment: Inhibition of recombinant human Cathepsin L assessed as inhibition of activity-based probe DCG-04 labelling preincubated for 30 mins followed by DCG-04 addition measured after 30 mins
Target sequence in this assay (P07711 114-333 limits assumed): as above

Pro-cathepsin H [12] = molecular target: T3, Pro-cathepsin H; experiment: Inhibition of human Cathepsin H using Arg-aminomethylcoumarin as substrate preincubated for 30 mins followed by substrate addition
Homo sapiens [13] = organism: Homo sapiens; experiment: Selectivity index, ratio of IC50 for human Cathepsin B to IC50 for recombinant human Cathepsin L after 30 mins using Z-Phe-Arg-aminomethylcoumarin as substrate preincubated for 30 mins followed by substrate addition
Procathepsin L [14] = molecular target: T2, Procathepsin L; experiment: Irreversible inhibition of recombinant human cathepsin L using Z-Phe-Arg-aminomethylcoumarin as substrate
Target sequence in this assay (P07711 whole entry): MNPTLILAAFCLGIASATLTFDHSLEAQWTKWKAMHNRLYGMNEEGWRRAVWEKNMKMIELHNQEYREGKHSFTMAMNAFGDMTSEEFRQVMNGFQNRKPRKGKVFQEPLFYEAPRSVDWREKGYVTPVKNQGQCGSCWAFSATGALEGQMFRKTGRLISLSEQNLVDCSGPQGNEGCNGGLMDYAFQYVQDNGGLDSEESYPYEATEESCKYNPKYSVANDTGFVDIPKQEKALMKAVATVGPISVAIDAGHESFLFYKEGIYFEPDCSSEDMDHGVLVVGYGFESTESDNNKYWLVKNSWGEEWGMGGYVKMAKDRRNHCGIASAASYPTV

Procathepsin L [15] = molecular target: T2, Procathepsin L; experiment: Inhibition of recombinant human Cathepsin L using Z-Phe-Arg-aminomethylcoumarin as substrate preincubated for 30 mins followed by substrate addition
Target sequence in this assay (P07711 whole entry): as above

In the case of `CC[C@H](C)[C@@H](C(=O)O[C@@H](CC(C)C)C(=O)N[C@@H](CC(C)C)C(=O)N[C@@H](C)/C=C/C(=O)N1C(=O)C=C(OC)[C@@H]1C)N(C)C` [GALLINAMIDE A], the IC50 (Cathepsin B [1]) is reported as 4200 nM, the IC50 (Procathepsin L [2]) is reported as 47 nM and the inhibition (Procathepsin L [2]; TDE = time-dependent effect) is reported as “tde”. The IC50 (Pro-cathepsin H [3]) was greater than 30000 nM, the Ratio IC50 (Homo sapiens [4]) was 28 and the IC50 (Cathepsin L2 [5]) was 460 nM. The Ratio IC50 (Homo sapiens [6]) was 91, the inhibition (Procathepsin L [7]) was “Active” and the IC50 (Cathepsin L2 [8]) was 140 nM. The Ratio IC50 (Homo sapiens [9]) was 10, the IC50 (Cathepsin B [10]) was 1700 nM and the inhibition (Procathepsin L [11]) was “Dose-dependent effect”. It also gave an IC50 (Pro-cathepsin H [12]) greater than 30000 nM, a Ratio IC50 (Homo sapiens [13]) of 320 and a Ki (Procathepsin L [14]) of 9000 M⁻¹ s⁻¹. For the same compound, the IC50 (Procathepsin L [15]) was 5 nM.
